The text below walks through data of ChEMBL document CHEMBL3739402, “Chromanones: selective and reversible monoamine oxidase B inhibitors with nanomolar potency” (Medchemcomm, 2015).

SMILES strings stand for the structures.

For one series, the system named is SH-SY5Y. The experiment in a line: Neurotoxicity against human SH-SY5Y cells assessed as cell viability at 3 to 50 uM after 48 hrs by MTT assay. In kind it is toxicity, cell-based.
The target in series [1] is T1, Amine oxidase [flavin-containing] A (Homo sapiens, UniProt P21397).
T1 sequence (P21397 whole entry): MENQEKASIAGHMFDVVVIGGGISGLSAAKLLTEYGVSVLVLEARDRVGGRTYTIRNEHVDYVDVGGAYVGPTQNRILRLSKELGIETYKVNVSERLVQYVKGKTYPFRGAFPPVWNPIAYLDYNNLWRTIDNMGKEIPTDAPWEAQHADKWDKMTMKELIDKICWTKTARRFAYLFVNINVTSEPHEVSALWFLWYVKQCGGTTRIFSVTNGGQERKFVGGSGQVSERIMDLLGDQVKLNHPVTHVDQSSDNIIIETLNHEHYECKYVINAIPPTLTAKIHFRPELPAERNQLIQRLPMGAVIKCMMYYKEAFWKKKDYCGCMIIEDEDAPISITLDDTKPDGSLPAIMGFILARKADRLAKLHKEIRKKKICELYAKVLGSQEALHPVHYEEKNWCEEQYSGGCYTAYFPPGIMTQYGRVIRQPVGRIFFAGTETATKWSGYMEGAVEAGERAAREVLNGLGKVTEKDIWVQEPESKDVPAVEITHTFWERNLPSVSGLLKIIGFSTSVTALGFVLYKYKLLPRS
The experiment in a line: Inhibition of human MAO-A using p-tyramine as substrate assessed as production of H2O2 from p-tyramine at 100 uM incubated for 15 mins by Amplex Red MAO assay. Conditions: 0.25 h; call rule not given here.

The target in series [2] is T2, Amine oxidase [flavin-containing] B (Homo sapiens, UniProt P27338).
T2 sequence (P27338 whole entry): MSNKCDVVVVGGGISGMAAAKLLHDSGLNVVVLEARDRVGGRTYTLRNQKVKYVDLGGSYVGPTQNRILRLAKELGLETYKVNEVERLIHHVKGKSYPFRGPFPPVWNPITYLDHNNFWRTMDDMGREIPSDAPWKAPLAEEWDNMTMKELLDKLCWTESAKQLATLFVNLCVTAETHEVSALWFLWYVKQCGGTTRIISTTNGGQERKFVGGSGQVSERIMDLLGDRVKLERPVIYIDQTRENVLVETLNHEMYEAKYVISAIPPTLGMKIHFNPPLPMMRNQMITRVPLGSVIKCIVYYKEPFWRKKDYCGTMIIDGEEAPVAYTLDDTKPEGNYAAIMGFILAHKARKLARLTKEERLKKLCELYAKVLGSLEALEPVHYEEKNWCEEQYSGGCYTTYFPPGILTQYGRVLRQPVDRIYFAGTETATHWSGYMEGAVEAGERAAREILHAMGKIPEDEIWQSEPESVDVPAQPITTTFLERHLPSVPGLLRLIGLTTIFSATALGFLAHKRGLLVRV
As to the kind of experiment: Inhibition of human MAO-B using p-tyramine as substrate assessed as production of H2O2 from p-tyramine incubated for 15 mins by Amplex Red MAO assay.

Series [3] addresses T2, Amine oxidase [flavin-containing] B. The experiment in a line: Competitive inhibition of human MAO-B using 50 to 500 uM p-tyramine as substrate at 4.3 to 17.2 nM by Lineweaver-Burk plot analysis.
Series [4] has the same target. The experiment in a line: Inhibition of human MAO-B preincubated at twice the IC50 for 60 mins.
Series [5] has the same target. As to the kind of experiment: Inhibition of human MAO-B preincubated at twice the IC50 for 30 mins.
For series [6] the target is unchanged. The experiment in a line: Inhibition of human MAO-B preincubated at twice the IC50 for 15 mins.
For series [7] the target is unchanged. As to the kind of experiment: Inhibition of human MAO-B preincubated at twice the IC50 for 0 mins.
The target is the same in series [8]. As to the kind of experiment: Reversible inhibition of human MAO-B preincubated at twice the IC50 for 0 to 60 mins.
For series [9] the target is unchanged. As to the kind of experiment: Time dependent inhibition of human MAO-B preincubated at twice the IC50 for 0 to 60 mins.
Series [10] concerns the target T1, Amine oxidase [flavin-containing] A. As to the kind of experiment: Inhibition of human MAO-A using p-tyramine as substrate assessed as production of H2O2 from p-tyramine incubated for 15 mins by Amplex Red MAO assay.
The species entered for another series is Homo sapiens. The experiment in a line: Selectivity index, ratio of IC50 for human MAO-A to IC50 for human MA)-B by Amplex Red MAO assay.

Broadly, the inhibition is the drop in the measured response relative to a control, in per cent. `CC1(C)CC(=O)c2ccc(OCc3ccc(F)cc3)cc2O1`: the Activity entry with SH-SY5Y is on record as “Non-toxic”. The inhibition at 100 µM in series [1] was found to be 25%.
What is called IC50 is the concentration that gives 50% inhibition. Regarding `CC1(C)CC(=O)c2ccc(OCc3ccccc3F)cc2O1`, in [1], the inhibition at 100 µM was found to be 28%. In addition, in series [2], the 50% inhibitory concentration (IC50) is 68.8 nM.
As for `CC1(C)CC(=O)c2ccc(OCc3cccc(Br)c3)cc2O1`, in [1], the inhibition at 100 µM came out at 16%. The IC50 in series [2] was found to be 52.2 nM.
For `O=C1CCOc2cc(OCc3ccc(F)cc3)ccc21`, in the series on SH-SY5Y, the Activity entry was “Non-toxic”. In addition, the “inhibition (INH)” value in series [3] is recorded as “Active”; in series [4], 49.6%; in series [5] it was 45.5%; in series [6] it was 44.5%; in series [7], 42.4%; in series [8], “Active”. Besides, the inhibition at 100 µM in series [1] amounted to 43%. Also, in series [9], the TDI result was “Not Active”.
Turning to `Cc1cccc(COc2ccc3c(c2)OC(C)(C)CC3=O)c1`, the inhibition at 100 µM in series [1] came to 18%. Besides, the IC50 in series [2] amounted to 98.3 nM.
On the same counts, the results for `O=C1CCOc2cc(OCc3ccc(Br)cc3)ccc21` are 19% and 21.6 nM.
Turning to `CC1(C)CC(=O)c2ccc(OCc3ccc(Cl)cc3)cc2O1`, the inhibition at 100 µM in series [1] is 28%.
With `O=C1CCOc2cc(OCc3cccc(Br)c3)ccc21`, the inhibition at 100 µM in series [1] was determined as 28%. In addition, the 50% inhibitory concentration (IC50) in series [2] worked out at 30.3 nM.
On to `Cc1cccc(COc2ccc3c(c2)OCCC3=O)c1`, for which the inhibition at 100 µM in series [1] came out at 19%.
Turning to `O=C1COc2cc(OCc3ccccc3)ccc21`, the IC50 in series [10] was determined as 38200 nM; in [2], 15200 nM. Further, in the series listed under Homo sapiens, the Ratio IC50 is 2.5.
With `O=C1COc2cc(OCCc3ccccc3)ccc21`, the 50% inhibitory concentration (IC50) is 46400 nM in series [10] and 2130 nM in series [2]. The Ratio IC50 in the series listed under Homo sapiens amounted to 21.8.
For the compound `O=C1CCOc2cc(OCCc3ccccc3)ccc21`, the inhibition at 100 µM in [1] is 58%. Further, in series [2], the IC50 came out at 251 nM.
Take `O=C1CCOc2cc(OCc3cccc(Cl)c3)ccc21`: the inhibition at 100 µM in series [1] was 35%. In [2], the half-maximal inhibitory concentration (IC50) was determined as 35.3 nM.
For `N#Cc1ccc(COc2ccc3c(c2)OCCC3=O)cc1` the same measures were 27% and 47.3 nM.
Consider `Cc1ccc(COc2ccc3c(c2)OCCC3=O)cc1`, for which the inhibition at 100 µM in [1] was determined as 26%. Moreover, in series [2], the IC50 was 91.3 nM.
Take `O=C1CCOc2cc(OCc3ccc(Cl)cc3)ccc21`: in series [1], the inhibition at 100 µM came out at 37%.
For the compound `O=C1COc2cc(OCCCc3ccccc3)ccc21`, the figures for the half-maximal inhibitory concentration (IC50) in series [10] and in series [2] were 39300 nM and 20500 nM, respectively. Moreover, in the series listed under Homo sapiens, the Ratio IC50 came to 1.9.
With `O=C1CCOc2cc(OCCCc3ccccc3)ccc21`, the inhibition at 100 µM in [1] came out at 65%. Moreover, the half-maximal inhibitory concentration (IC50) in [2] was 21400 nM.
On the same counts, the results for `CC1(C)CC(=O)c2ccc(OCc3cccc(F)c3)cc2O1` are 18% and 65.5 nM.
As for `O=C1CCOc2cc(OCc3ccccc3F)ccc21`, in [1], the inhibition at 100 µM worked out at 35%. In addition, in series [2], the IC50 was found to be 58.8 nM.
For the compound `O=C1CCOc2cc(OCc3cccc(F)c3)ccc21`, the inhibition at 100 µM in [1] was 26%. Moreover, the IC50 in [2] is 52.6 nM. Moreover, the Ratio IC50 in the series filed under Homo sapiens is above 1900.
On to `CC1(C)CC(=O)c2ccc(OCc3ccccc3)cc2O1`, for which, in [1], the inhibition at 100 µM was found to be 25%. Besides, the IC50 in series [2] was 97.5 nM.
Turning to `CC1(C)CC(=O)c2ccc(OCc3ccc(Br)cc3)cc2O1`, the inhibition at 100 µM in [1] worked out at 21%. Also, the IC50 in series [2] was 45.4 nM.
In the case of `O=C1CCOc2cc(O)ccc21`, the IC50 in series [10] is 71400 nM; in series [2], 78900 nM. In addition, in the series filed under Homo sapiens, the Ratio IC50 stood at 0.9.
As for `CC1(C)CC(=O)c2ccc(OCc3cccc(Cl)c3)cc2O1`, the inhibition at 100 µM in series [1] was 31%. In [2], the IC50 came out at 55.4 nM.
For `Cc1ccc(COc2ccc3c(c2)OC(C)(C)CC3=O)cc1` the same measures were 25% and 113 nM.
On the same counts, the results for `CC1(C)CC(=O)c2ccc(OCc3ccc(C#N)cc3)cc2O1` are 23% and 69.5 nM.
In the case of `O=C1CCOc2cc(OCc3ccccc3)ccc21`, the inhibition at 100 µM in [1] turned out to be 18%. Further, the IC50 in series [2] came to 57.4 nM.
